# Results: publication PMC9856199, “Intact Transition Epitope Mapping—Force Differences between Original and Unusual Residues (ITEM-FOUR)” (Biomolecules, 2023)
# Peptide text beside a SMILES is read from it.
# Key:
# Type in all cases: binding
# [1] = molecular target: monoclonal anti-hcTn I antibody [MF4] (ab38210 from Abcam); experiment: Isothermal titration calorimetry of immune complex formation in solution; conditions: for ∆H / ∆G: immune complex formation in solution; for ∆H: 298 K; for ∆G: calculated from KA (van´t Hoff equation); for T∆S: T = 298 K, calculated with Gibbs-Helmholtz equation
# Protocol: The monoclonal anti-hcTn I antibody [MF4] (ab38210 from Abcam, Cambridge, United Kingdom) was stored in PBS (0.138 M NaCl; 0.0027 M KCl, pH 7.4 from Sigma-Aldrich, St. Louis, MO, US), pH 7.4, and was used as purchased. The hcTn I peptides 1, 2, 4, 6, 7, and 8 were dissolved in PBS and stock solutions with 0.32 to 0.93 mg/mL peptide concentrations were prepared.
# Isothermal titration calorimetry measurements were performed with an Affinity ITC instrument (Waters|TA Instruments, New Castle, DE, USA) at T = 298 K equipped with a 190 µL sample cell and a matching reference cell, AccuShot for precise delivery of the titrant, and a Flex Spin for slow speed stirring (125 rpm), efficient mixing, and highest sensitivity. The anti-hcTn I antibody was placed in the sample cell at 1.95 µM (in PBS). The hcTn I peptides, each at 40 µM (in PBS), were automatically titrated to the antibody in 18–20 steps (2 µL per step). The time between titrations was 200 s to establish a baseline between each injection for accurate heat determination and modeling.
# The integrated areas under each injection peak (heat over time) were plotted against the active species’ respective molar ratios ranging from 1:0.4 to 1:6.6. An independent binding model was chosen to fit all the data and directly determine the enthalpy (ΔH) and association constant (KA). Gibbs free energy (ΔG) is calculated from the KA using the van´t Hoff equation. The change in entropy term (ΔS) is calculated applying the Gibbs-Helmholtz equation.
# [2] = molecular target: monoclonal anti-hcTn I antibody [MF4] (ab38210 from Abcam); experiment: ITEM-FOUR: nanoESI-MS gas-phase dissociation of antibody-peptide immune complexes; conditions: for KD m0g#: apparent gas-phase dissociation constant, unitless number; for KD m0g# / kD m0g#: mean charge state, extrapolated to no excess energy; for kD m0g#: apparent gas-phase dissociation rate constant; for ΔGm0g# / ΔHm0g# / TambΔSm0g#: apparent, gas-phase immune complex dissociation; for TambΔSm0g#: Tamb 298 K; for binder group by ITEM-FOUR: grouping by ΔHm0g# and binding behaviour in the gas phase; for Initial [%] (immune complex amount at the lowest applied ∆CV): normalized educt ion intensity at ∆CV 2 V; for Initial [%] (immune complex amount at the lowest applied ∆CV) / Final [%] (immune complex amount at the highest applied ∆CV): antibody:peptide 1:2.2, 200 mM ammonium acetate pH 6.7, averaged from all measurements; for Final [%] (immune complex amount at the highest applied ∆CV): normalized educt ion intensity at ∆CV 80 V; for Slope: slope of tangent along steep part of Boltzmann curve
# Protocol: Starting materials and antibody-peptide complex-containing solutions were prepared as previously described. In brief, an aliquot of 25 µL (50 µg) of the monoclonal anti-hcTn I antibody [MF4] (ab38210 from Abcam, Cambridge, United Kingdom) was placed on a 10K centrifugal filter device (Merck Millipore, Carrigtwohill, Ireland) with 400 µL 200 mM ammonium acetate, pH 6.7. After centrifugation at 13,000 rpm for 7 min in an Eppendorf centrifuge (MiniSpin, Eppendorf, Hamburg, Germany), the flow through was discarded and the filter was filled-up with 450 µL 200 mM ammonium acetate, pH 6.7. This centrifugation/discarding/refilling step was repeated eight times. Afterwards, the filter was placed upside down in a new tube and centrifuged for 5 min at 4500 rpm. Approximately 50 µL of antibody solution were collected (solution 1). […] Synthesized hcTn I peptides (Table 1) were purchased as lyophilized powders (peptides and elephants, Hennigsdorf, Germany) and dissolved in 200 mM ammonium acetate, pH 6.7, to obtain peptide concentrations of ca. 2.0 mg/mL, each. The actual peptide concentrations of individual peptide solutions were determined using the Qubit^TM 2.0 Fluorometer assay. Afterwards, all peptide solutions were diluted 1:100 with 200 mM ammonium acetate, pH 6.7 (solution 2). To obtain immune-complex-containing mixtures, the antibody solution (solution 1) and the peptide solution (solution 2) were mixed to obtain final molar antibody-peptide ratios of 1:2.2 (solution 3). Typically, 4 µL of antibody solution were mixed with the appropriate volume (typically 1–2 µL) of the individual peptide solution. Solutions 3 were incubated at room temperature for at least 1 h.
# For each ITEM-FOUR examination, 3 µL of the peptide, antibody, or immune complex-containing solution were loaded into nanoESI capillaries that were pulled and gold coated in house. NanoESI-MS measurements were performed with a Synapt G2-S mass spectrometer (Waters MS-Technologies, Manchester, United Kingdom) with the following settings for ITEM-FOUR measurements: capillary voltage, 1.8 kV; source temperature, 40 °C; source offset voltage, 110 V; sample cone voltage, 110 V; cone gas flow, 100 L/h; trap gas flow, 8.0 mL/min; transfer collision cell voltage, 2 V. Measurements were acquired in positive-ion resolution mode, applying a mass window of m/z 200–8000. This mass range was calibrated using 1 mg/mL sodium iodide dissolved in isopropanol/water (50:50, v/v). The quadrupole analyzer was used with the following settings: M1 = 4000, dwell time, and ramp time 25%; M2 = 5000, dwell time, and ramp time 25%; and M3 = 6000 to block transmission of lower molecular weight ions. The first collision cell (TRAP) was used to dissociate antibody-peptide complexes by increasing the collision cell voltage difference (∆CV) in a stepwise manner every 60 s. The collision cell voltage difference steps were: 2, 4, 6, 8, 12, 16, 20, 30, 40, 50, 60, 70, and 80 V. Measurements were repeated at least twice (up to seven times) per immune complex, generating a total of 32 measurement series. The mass spectrometry proteomics data have been deposited to the ProteomeXchange Consortium via the PRIDE [33] partner repository with the dataset identifier PXD038365.
# MassLynx version 4.1 (Waters MS-Technologies) was used for data analysis as described previously. First, the scans of each ∆CV setting encompassing 60 s of recording were combined to generate an average mass spectrum for each ∆CV step. Next, the mass spectra were smoothened in 20 cycles with a window of 10 using the Savitzky-Golay algorithm. The ion intensities of all molecular species and their corresponding charge states (complex ions, complex-released peptides, and antibody fragments) were read after smoothing. A bell-shaped Gaussian curve of the intensities of each molecular species was calculated using Origin 2017 (32-bit) SR2 (OriginLab Corporation, Northampton, MA, USA). […]
# [3] = test system: anti-Histag antibody; experiment: nanoESI-MS of peptide mixed with unrelated antibody (specificity control); conditions: binary mixture, 200 mM ammonium acetate pH 6.7
# Protocol: Figure S15. Nano-ESI mass spectra of Troponin I peptide 7 (ENREVGDWPKNIDAL) upon incubation with anti-Histag […]
# ion signal) and (b) with blocked transmission of low mass ions (< 4800 ) and collision cell voltage differences of 2V and (c) with blocked transmission of low mass ion (< 4800) and collision cell voltage differences of 80V. Charge states are given for […]
# Antibody fragment ion signals are visible between m/z 1200 and 2300 in (c). Solvent: 200 mM ammonium acetate, pH 6.7.
# (1 picture or pasted object on this page, not shown here)
# [4] = ITC in PBS pH 7.4, 298 K, antibody 1.95 µM in cell, peptide 40 µM titrant, independent binding model, unitless number
# [5] = ITC in PBS pH 7.4, 298 K, independent binding model, unitless number
Molecule,"Kd [1, 4] [nM]","KA [1, 5]",∆H ([1]; ITC),∆G ([1]; ITC),T∆S ([1]; ITC),KD m0g# [2],kD m0g# [2] [s⁻¹],ΔGm0g# [2] [kcal/mol],ΔHm0g# [2] [kcal/mol],TambΔSm0g# [2] [kcal/mol],binder group by ITEM-FOUR [2],Initial [%] (immune complex amount at the lowest applied ∆CV) [2],Final [%] (immune complex amount at the highest applied ∆CV) [2],Slope [2] [%/V],complex formation with anti-Histag antibody (in words) [3],"KD [1, 4]","binding in solution (in words) ([1]; ITC, PBS pH 7.4, 298 K)","binding to anti-hcTn I antibody (in words) ([2]; ITEM analysis of peptide-antibody mixture, molar ratio 2.2:1)"
CC[C@H](C)[C@H](NC(=O)[C@H](CC(N)=O)NC(=O)[C@H](CCCCN)NC(=O)[C@H](CC(C)C)NC(=O)[C@H](Cc1c[nH]c2ccccc12)NC(=O)[C@H](CC(=O)O)NC(=O)CNC(=O)[C@@H](NC(=O)[C@H](CCC(=O)O)NC(=O)[C@H](CCCNC(=N)N)NC(=O)[C@H](CC(N)=O)NC(=O)[C@@H](N)CCC(=O)O)C(C)C)C(=O)N[C@@H](CC(=O)O)C(=O)N[C@@H](C)C(=O)N[C@@H](CC(C)C)C(=O)O [Peptide 4] (H-ENREVGDWLKNIDAL-OH),243,4.12 × 10^6 Ø,-12.45 kcal/mol,-9.027 kcal/mol,-3.425 kcal/mol,4.77 × 10^−12 Ø,7.37e+12,15.44,-0.538,-15.97,strong binders (“strong binders” (group II) with ΔHm0g# values below −2 kJ/mol),41.60,23.12,−0.35,,,,
CC[C@H](C)[C@H](NC(=O)[C@H](CC(N)=O)NC(=O)[C@H](CCCCN)NC(=O)[C@H](CCCNC(=N)N)NC(=O)[C@H](Cc1c[nH]c2ccccc12)NC(=O)CNC(=O)CNC(=O)[C@@H](NC(=O)[C@H](CCC(=O)O)NC(=O)[C@H](CCCNC(=N)N)NC(=O)[C@H](CC(N)=O)NC(=O)[C@@H](N)CCC(=O)O)C(C)C)C(=O)N[C@@H](CC(=O)O)C(=O)N[C@@H](C)C(=O)N[C@@H](CC(C)C)C(=O)O [Peptide 6] (H-ENREVGGWRKNIDAL-OH),411,2.43 × 10^6 Ø,-10.85 kcal/mol,-8.721 kcal/mol,-2.13 kcal/mol,4.62 × 10^−12 Ø,2.9e+12,15.46,-0.442,-15.89,"very strong binders (Peptides 1, 2, and 6 are “very strong binders” (group I) as their ΔHm0g# values of the gas-phase dissociation reaction are above −2 kJ/mol)",58.83,23.33,−0.75,,,,
ENREVGDWPKNIDAL [Peptide 7],,n.b.,n.b.,n.b.,n.b.,,,,,,weak and unorthodox binder,15.37,5.90,,no complex formation was detected,n.b.,did not bind in solution,bound by the paratope in an unorthodox fashion
